Several values for one entry are separate records, joined by “and”; a condition that tells them apart may be missing. Identical values can stand only once. Entries after “also recorded” stand apart in the source; their conditions may differ.
What was measured:
[1] = system: Daphnia magna; assay: Daphnia magna acute 48 h immobilization assay (Daphtoxkit); assay type: in vivo; conditions: 48 h;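 further: test concentrations in mg per L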
Method: Six concentration levels (5 concentrations plus control, four replicate beakers for each concentrations, five individual for each beaker) were tested. […] Each experiment was repeated in triplicate.

[2] = system: Tetrahymena thermophila; assay: microbe, parasite or virus in culture; assay type: cell-based
Method: The tests were performed in accordance with the protocols provided by the manufacturer. […] The tests were carried out in disposable spectrophotometric cells of 1 cm path-length, to enable the measurement of the optical density (OD) at 440 nm. […] This change in OD over the time period is used to quantify the degree of inhibition and subsequent calculation of the EC50. Each concentration was repeated in duplicate.

[3] = Activated sludge simulating microcosms (degradation of FL, formation of NFL); assay type: physicochemical; conditions: for transformation / removal: 24 h
Method: Activated sludge microcosm experiments were conducted in the dark and aerobic conditions. Three microcosm bioreactors were investigated in duplicate. They were filled with 2 L of fresh activated sludge collected from a local wastewater treatment plant. […] Dark conditions were simulated by covering up the flask with foil. Aerobic conditions were obtained using air from BOC air cylinder and a thorough mixing was maintained using magnetic stirrers. The experiment was 24 hours long. […] Collected samples were subsequently frozen until their analysis to prevent degradation of compounds.
The compounds studied are characterized as having low volatility and therefore volatilization was not considered as a potential removal pathway in studied microcosms. Photodegradation was also not considered (not relevant) under tested activated sludge conditions. Therefore the two important degradation mechanisms to consider were biodegradation and sorption to sludge. […] However, in this study, sorption equilibrium was assumed and therefore sorption could be considered negligible. This is because sorption is assumed to be fast when compared to biological degradation.
Several reports utilized pseudo-first-order kinetics for degradation of micropollutants in activated sludge reactors[48]–[50]. […] Pseudo-first order biodegradation rate k1 [L g^−1h^−1]

[4] = system: P. promelas; conditions: ref [34]; cited from earlier work
[5] = system: D. magna; conditions: ref [34]; cited from earlier work
[6] = River water simulating microcosms (degradation of FL); conditions: for removal of FL: river water
[7] = ref [3], cited from earlier work
[8] = 100 µg L^−1, pseudo-first order
[9] = dark biotic conditions (DBR), 1 µg L^−1 racemic FL, 16 days
[10] = light abiotic conditions (LAR), 1 µg L^−1 racemic FL, 16 days
[11] = light biotic reactor (LBR), 1 µg L^−1 racemic FL, 16 days
[12] = 10 µg L^−1 microcosm, first 30 minutes

With CNCC[C@@H](Oc1ccc(C(F)(F)F)cc1)c1ccccc1 [(R)-FL, (R)-N-Methyl-3-(4-trifluoromethylphenoxy)-3-phenylpropylamine] the “Average effect (N immobile, 5 daphnids per replicate)” value ([1]; concentration 0.5) was 0, the “Average effect (N immobile, 5 daphnids per replicate)” value ([1]; concentration 1.5) was 0.25 and the “Average effect (N immobile, 5 daphnids per replicate)” value ([1]; concentration 5) was 3.25. For the same molecule, the “Average effect (N immobile, 5 daphnids per replicate)” value ([1]; concentration 16) was 5, the “Average effect (N immobile, 5 daphnids per replicate)” value ([1]; concentration 50) was 5 and the “times more toxic than (S)-FL” value ([2]; Tetrahymena thermophila) was 30 ×. For the same molecule, the “% I (percentage inhibition)” value ([2]; definitive test, conc. 0.086) was -8.032%, the “% I (percentage inhibition)” value ([2]; definitive test, conc. 24.098) was 91.516% and the “% I (percentage inhibition)” value ([2]; definitive test, conc. 79.522) was 90.724%. The “% I (percentage inhibition)” value ([2]; range test, conc. 0.005) was -3.105%, the “% I (percentage inhibition)” value ([2]; range test, conc. 0.050) was 5.433% and the “% I (percentage inhibition)” value ([2]; range test, conc. 0.500) was -1.164%. For the same molecule, the “% I (percentage inhibition)” value ([2]; range test, conc. 5.000) was 39.974%, the degradation ([3]; 10 µg L^−1) was “lack of degradation; also recorded: No degradation” and the kbiol ([3]; 100 µg L^−1) was 0.01 LgSS ^−1h^−1. The t1/2biol ([3]; 100 µg L^−1) was 68 h and 68.0 h, the k1 [3, 8] was 0.02 h⁻¹ and the transformation / removal ([3]; 100 µg L^−1 microcosm) was 38%. The LOEC7d -feeding [4] was 0.17 mg/L, the LOEC7d -growth [4] was 0.17 mg/L and the LOEC7d -survival [4] was 0.17 mg/L. For the same molecule, the LOEC21d -grazing [5] was “none”, the LOEC21d -immobilization [5] was 0.43 mg/L and the LOEC21d -reproduction [5] was 0.43 mg/L. The “removal of FL” value [6, 9] was 67.9%, the “removal of FL” value [6, 10] was 79.2% and the “removal of FL” value [6, 11] was 96.7%.

In the case of CNCC[C@H](Oc1ccc(C(F)(F)F)cc1)c1ccccc1 [(S)-FL], the “Average effect (N immobile, 5 daphnids per replicate)” value ([1]; concentration 0.5) is reported as 0.25, the “Average effect (N immobile, 5 daphnids per replicate)” value ([1]; concentration 1.5) is reported as 1 and the “Average effect (N immobile, 5 daphnids per replicate)” value ([1]; concentration 5) is reported as 3.25. The “Average effect (N immobile, 5 daphnids per replicate)” value ([1]; concentration 16) was 5, the “Average effect (N immobile, 5 daphnids per replicate)” value ([1]; concentration 50) was 5 and the “% I (percentage inhibition)” value ([2]; definitive test, conc. 0.104) was -1.720%. The “% I (percentage inhibition)” value ([2]; definitive test, conc. 0.313) was 4.194%, the “% I (percentage inhibition)” value ([2]; definitive test, conc. 0.535) was 0.108% and the “% I (percentage inhibition)” value ([2]; definitive test, conc. 10.446) was 7.204%. For the same molecule, the “% I (percentage inhibition)” value ([2]; definitive test, conc. 20.892) was 22.366%, the “% I (percentage inhibition)” value ([2]; definitive test, conc. 68.945) was 73.441% and the “% I (percentage inhibition)” value ([2]; definitive test, conc. 104.462) was 83.118%. For the same molecule, the “% I (percentage inhibition)” value ([2]; range test, conc. 0.005) was 22.617%, the “% I (percentage inhibition)” value ([2]; range test, conc. 0.050) was 21.857% and the “% I (percentage inhibition)” value ([2]; range test, conc. 0.500) was 26.510%. The “% I (percentage inhibition)” value ([2]; range test, conc. 5.000) was 26.130%, the “% I (percentage inhibition)” value ([2]; range test, conc. 50.000) was 57.653% and the kbiol ([3]; 10 µg L^−1) was 0.04 LgSS ^−1h^−1. The t1/2biol ([3]; 10 µg L^−1) was 19 h and 18.9 h, the k1 ([3]; 10 µg L^−1, pseudo-first order) was 0.07 h⁻¹ and the kbiol ([3]; 100 µg L^−1) was 0.04 LgSS ^−1h^−1. The t1/2biol ([3]; 100 µg L^−1) was 19 h and 19.4 h, the k1 [3, 8] was 0.07 h⁻¹ and the transformation / removal ([3]; 100 µg L^−1 microcosm) was 80%. For the same molecule, the LOEC7d -feeding [4] was 0.05 mg/L, the LOEC7d -growth [4] was 0.05 mg/L and the LOEC7d -survival [4] was 0.10 mg/L. The LOEC21d -grazing [5] was 0.20 mg/L, the LOEC21d -immobilization [5] was 0.44 mg/L and the LOEC21d -reproduction [5] was 0.44 mg/L. For the same molecule, the “removal of FL” value [6, 9] was 60.4%, the “removal of FL” value [6, 10] was 74.5% and the “removal of FL” value [6, 11] was 98.4%.

CNCCC(Oc1ccc(C(F)(F)F)cc1)c1ccccc1 (stereo not drawn) [FL, Fluoxetine, reference compound] gave an EF ([3]; 10 µg L-1 microcosm, time 0) of 0.484, an EF ([3]; 10 µg L-1 microcosm, time 0.5) of 0.504 and an EF ([3]; 10 µg L-1 microcosm, time 1) of 0.347. It also gave an EF ([3]; 10 µg L-1 microcosm, time 1.5) of 0.499, an EF ([3]; 10 µg L-1 microcosm, time 2) of 0.480 and an EF ([3]; 10 µg L-1 microcosm, time 3) of 0.499. For the same molecule, the EF ([3]; 10 µg L-1 microcosm, time 5) was 0.429, the EF ([3]; 10 µg L-1 microcosm, time 8) was 0.461 and the EF ([3]; 10 µg L-1 microcosm, time 12) was 0.263. For the same molecule, the EF ([3]; 10 µg L-1 microcosm, time 24) was 0.260, the lag phase ([3]; 10 µg L^−1 FL bioreactor) was 3 h and the “degradation (rapid removal from aqueous phase)” value [3, 12] was 50%. For the same molecule, the “enantiomeric fraction (EF)” value [3, 12] was 0.5, the “enantiomeric fraction (EF)” value ([3]; 10 µg L^−1 reactor, after further slow removal) was less than 0.3 and the EF ([3]; 100 µg L-1 microcosm, time 0) was 0.531. For the same molecule, the EF ([3]; 100 µg L-1 microcosm, time 0.5) was 0.519, the EF ([3]; 100 µg L-1 microcosm, time 1) was 0.515 and the EF ([3]; 100 µg L-1 microcosm, time 1.5) was 0.516. It also gave an EF ([3]; 100 µg L-1 microcosm, time 2) of 0.511, an EF ([3]; 100 µg L-1 microcosm, time 3) of 0.477 and an EF ([3]; 100 µg L-1 microcosm, time 5) of 0.431. For the same molecule, the EF ([3]; 100 µg L-1 microcosm, time 8) was 0.410, the EF ([3]; 100 µg L-1 microcosm, time 12) was 0.326 and the EF ([3]; 100 µg L-1 microcosm, time 24) was 0.257. The lag phase ([3]; 100 µg L^−1 FL bioreactor) was 2 h, the “enantiomeric fraction (EF)” value ([3]; 100 µg L^−1 microcosm) was less than 0.3 and the transformation / removal ([3]; 100 µg L^−1 microcosm) was 60%. The “excreted in the urine as this species” value ([7]; after FL) was 11.6%, the “excreted in the feces” value [7] was “approximately 15%” and the “excreted in the urine” value [7] was 80%. The EF ([6]; DAR (dark abiotic), day 1) was 0.499, the EF ([6]; DAR (dark abiotic), day 2) was 0.502 and the EF ([6]; DAR (dark abiotic), day 3) was 0.504. For the same molecule, the EF ([6]; DAR (dark abiotic), day 4) was 0.507, the EF ([6]; DAR (dark abiotic), day 9) was 0.497 and the EF ([6]; DAR (dark abiotic), day 10) was 0.505. The EF ([6]; DAR (dark abiotic), day 11) was 0.526, the EF ([6]; DAR (dark abiotic), day 15) was 0.497 and the EF ([6]; DBR (dark biotic), day 1) was 0.506. For the same molecule, the EF ([6]; DBR (dark biotic), day 2) was 0.468, the EF ([6]; DBR (dark biotic), day 3) was 0.496 and the EF ([6]; DBR (dark biotic), day 4) was 0.503. The EF ([6]; DBR (dark biotic), day 5) was 0.495, the EF ([6]; DBR (dark biotic), day 8) was 0.441 and the EF ([6]; DBR (dark biotic), day 9) was 0.499. For the same molecule, the EF ([6]; DBR (dark biotic), day 10) was 0.507, the EF ([6]; DBR (dark biotic), day 11) was 0.495 and the EF ([6]; DBR (dark biotic), day 12) was 0.490. It also gave an EF ([6]; DBR (dark biotic), day 15) of 0.538, an EF ([6]; DBR (dark biotic), day 16) of 0.554 and an EF ([6]; LAR (light abiotic), day 1) of 0.497. For the same molecule, the EF ([6]; LAR (light abiotic), day 2) was 0.488, the EF ([6]; LAR (light abiotic), day 3) was 0.491 and the EF ([6]; LAR (light abiotic), day 4) was 0.498. The EF ([6]; LAR (light abiotic), day 5) was 0.511, the EF ([6]; LAR (light abiotic), day 8) was 0.508 and the EF ([6]; LAR (light abiotic), day 9) was 0.513. The EF ([6]; LAR (light abiotic), day 10) was 0.511, the EF ([6]; LAR (light abiotic), day 11) was 0.512 and the EF ([6]; LAR (light abiotic), day 12) was 0.487. The EF ([6]; LAR (light abiotic), day 15) was 0.531, the EF ([6]; LAR (light abiotic), day 16) was 0.535 and the EF ([6]; LBR (light biotic), day 1) was 0.493. It also gave an EF ([6]; LBR (light biotic), day 2) of 0.493, an EF ([6]; LBR (light biotic), day 3) of 0.498 and an EF ([6]; LBR (light biotic), day 4) of 0.502. It also gave an EF ([6]; LBR (light biotic), day 5) of 0.508, an EF ([6]; LBR (light biotic), day 8) of 0.537 and an EF ([6]; LBR (light biotic), day 9) of 0.512. For the same molecule, the EF ([6]; LBR (light biotic), day 10) was 0.497, the EF ([6]; LBR (light biotic), day 11) was 0.498 and the EF ([6]; LBR (light biotic), day 12) was 0.491. For the same molecule, the EF ([6]; LBR (light biotic), day 15) was 0.525, the EF ([6]; LBR (light biotic), day 16) was 0.467 and the “removal of FL” value ([6]; dark abiotic conditions (DAR)) was “did not lead to any significant removal”.

From PMC5693942 (Scientific Reports, 2017)
